Data on 36 compounds can be found in patent US20110195929A1, “COMPOUNDS FOR THE TREATMENT OF FLAVIVIRAL INFECTIONS” (SUMMIT CORPORATION PLC, priority 2008, published 2011).

The first experiment concerns HCV. Put plainly: Cell-based HCV infection NS3 protease FRET assay in DMSO-Huh7 cells. Also: test concentration or dose not given here. Also on record: species or system hepatitis C virus (HCV).
Conditions: not given
Turning to `CC1(C)O[C@H]2[C@@H](CN=[N+]=[N-])NC[C@H]2O1` [Compound 671, (3aS,4R,6aR)-4-(azidomethyl)-2,2-dimethyltetrahydro-3aH-[1,3]dioxolo[4,5-c]pyrrole], the Ave % inhibition entry is listed as “++ (++: 20-39%)”. With `CCN1C[C@H](O)[C@@H](O)[C@H](O)[C@H]1CO` [Compound 756, (2R,3R,4R,5S)-1-ethyl-2-(hydroxymethyl)piperidine-3,4,5-triol], the Ave % inhibition result is “+ (+: ≦19%)”.

The same experiment, now with this note: DMSO-Huh7 cells infected with HCV at 0.05 ffu/cell; HCV NS3 protein levels by FRET, day 6 p.i.
For the compound `CCCCCCCCCN1C[C@H](O)[C@H](O)[C@@H]1CNC(=O)c1ccccc1` [Compound 622, N-(((2S,3R,4S)-3,4-dihydroxy-1-nonylpyrrolidin-2-yl)methyl)benzamide], the Ave % inhibition entry is reported as “+++++ (+++++: ≧80%)”.

Consider `OC[C@H]1[C@H](O)[C@H](O)CN1Cc1ccc(-c2ccccc2)cc1` [Compound 623, (2S,3S,4R)-1-(biphenyl-4-ylmethyl)-2-(hydroxymethyl)pyrrolidine-3,4-diol], for which the Ave % inhibition result was “++ (++: 20-39%)”.

Take `CCCCCCCCCN1C[C@@H]2OC(C)(C)O[C@@H]2[C@@H]1CNC(C)=O` [Compound 630, N-(((3aR,4S,6aS)-2,2-dimethyl-5-nonyltetrahydro-3aH-[1,3]dioxolo[4,5-c]pyrrol-4-yl)methyl)acetamide]: the Ave % inhibition result was “++ (++: 20-39%)”. With `CC1(C)O[C@H]2[C@H](CN(Cc3ccc(-c4ccccc4)cc3)[C@H]2CNC(=O)C(F)(F)F)O1` [Compound 632, N-(((3aR,4S,6aS)-5-(biphenyl-4-ylmethyl)-2,2-dimethyltetrahydro-3aH-[1,3]dioxolo[4,5-c]pyrrol-4-yl)methyl)-2,2,2-trifluoroacetamide], the Ave % inhibition result was “++ (++: 20-39%)”. Consider `O=C(NC[C@H]1[C@@H](O)[C@@H](O)CN1CCN1CCOCC1)c1ccccc1` [Compound 633, N-(((2S,3R,4S)-3,4-dihydroxy-1-(2-morpholinoethyl)pyrrolidin-2-yl)methyl)benzamide], for which the Ave % inhibition entry is listed as “+++ (+++: 40-59%)”. Take `O=C(NC[C@@H]1[C@@H](O)[C@@H](O)CN1Cc1ccc(-c2ccccc2)cc1)c1ccccc1` [Compound 649, N-(((2R,3R,4S)-1-(biphenyl-4-ylmethyl)-3,4-dihydroxypyrrolidin-2-yl)methyl)benzamide]: the Ave % inhibition result was “+++ (+++: 40-59%)”. As for `CC1(C)O[C@H]2[C@H](CN(Cc3ccccc3)[C@H]2CNC(=O)c2ccc(-c3ccccc3)cc2)O1` [Compound 652, N-(((3aR,4S,6aS)-5-benzyl-2,2-dimethyltetrahydro-3aH-[1,3]dioxolo[4,5-c]pyrrol-4-yl)methyl)biphenyl-4-carboxamide], the Ave % inhibition result was “+++++ (+++++: ≧80%)”. Turning to `O=C(NC[C@H]1[C@@H](O)[C@@H](O)CN1CCCCCCCCCO)c1ccc(-c2ccccc2)cc1` [Compound 660, N-(((2S,3R,4S)-3,4-dihydroxy-1-(9-hydroxynonyl)pyrrolidin-2-yl)methyl)biphenyl-4-carboxamide], the Ave % inhibition entry is recorded as “+++ (+++: 40-59%)”. With `CN(C)CCN1C[C@H](O)[C@H](O)[C@@H]1CNC(=O)c1ccccc1` [Compound 667, N-(((2S,3R,4S)-1-(2-(dimethylamino)ethyl)-3,4-dihydroxypyrrolidin-2-yl)methyl)benzamide], the Ave % inhibition entry is given as “++ (++: 20-39%)”. Regarding `CCCC(=O)NC[C@@H]1[C@@H](O)[C@@H](O)CN1Cc1ccccc1` [Compound 669, N-(((2R,3R,4S)-1-benzyl-3,4-dihydroxypyrrolidin-2-yl)methyl)butyramide], the Ave % inhibition result is listed as “++ (++: 20-39%)”.

`O=C(NC[C@@H]1NC[C@H](O)[C@@H]1O)c1ccc(-c2ccccc2)cc1` [Compound 670, N-(((2S,3R,4S)-3,4-dihydroxypyrrolidin-2-yl)methyl)biphenyl-4-carboxamide]: the Ave % inhibition result is given as “+++++ (+++++: ≧80%)”. As to `O=C(NC[C@@H]1[C@@H](O)[C@@H](O)CN1Cc1ccccc1)c1ccc(-c2ccccc2)cc1` [Compound 673, N-(((2R,3R,4S)-1-benzyl-3,4-dihydroxypyrrolidin-2-yl)methyl)biphenyl-4-carboxamide], the Ave % inhibition result is given as “++ (++: 20-39%)”.

In the case of `O=C(NC[C@@H]1NC[C@H](O)[C@@H]1O)C(F)(F)F` [Compound 674, N-(((2S,3R,4S)-3,4-dihydroxypyrrolidin-2-yl)methyl)-2,2,2-trifluoroacetamide], the Ave % inhibition entry is “++ (++: 20-39%)”.

Take `CC1(C)O[C@H]2[C@H](CN(CCN3CCOCC3)[C@H]2CNC(=O)C(F)(F)F)O1` [Compound 675, N-(((3aR,4S,6aS)-2,2-dimethyl-5-(2-morpholinoethyl)tetrahydro-3aH-[1,3]dioxolo[4,5-c]pyrrol-4-yl)methyl)-2,2,2-trifluoroacetamid]: the Ave % inhibition result is “++ (++: 20-39%)”. `CCCCN1C[C@@H]2OC(C)(C)O[C@@H]2[C@@H]1CNC(=O)C(F)(F)F` [Compound 676, N-(((3aR,4S,6aS)-5-butyl-2,2-dimethyltetrahydro-3aH-[1,3]dioxolo[4,5-c]pyrrol-4-yl)methyl)-2,2,2-trifluoroacetamide]: the Ave % inhibition result is on record as “++ (++: 20-39%)”. For the compound `CC1(C)O[C@H]2[C@H](CN(CCN3CCCCC3)[C@H]2CNC(=O)C(F)(F)F)O1` [Compound 677, N-(((3aR,4S,6aS)-2,2-dimethyl-5-(2-(piperidin-1-yl)ethyl)tetrahydro-3aH-[1,3]dioxolo[4,5-c]pyrrol-4-yl)methyl)-2,2,2-trifluoroacetamide], the Ave % inhibition entry was “++ (++: 20-39%)”.

For the compound `CN(C)CCN1C[C@@H]2OC(C)(C)O[C@@H]2[C@@H]1CNC(=O)C(F)(F)F` [Compound 678, N-(((3aR,4S,6aS)-5-(2-(dimethylamino)ethyl)-2,2-dimethyltetrahydro-3aH-[1,3]dioxolo[4,5-c]pyrrol-4-yl)methyl)-2,2,2-trifluoroacetamide], the Ave % inhibition entry is given as “++ (++: 20-39%)”. For the compound `NC[C@H]1[C@@H](O)[C@@H](O)CN1Cc1ccc(-c2ccccc2)cc1` [Compound 686, (2S,3R,4S)-2-(aminomethyl)-1-(biphenyl-4-ylmethyl)pyrrolidine-3,4-diol], the Ave % inhibition result is “+++ (+++: 40-59%)”. Regarding `COCCOCCN1C[C@H](O)[C@H](O)[C@@H]1CNC(=O)c1ccc(-c2ccccc2)cc1` [Compound 688, N-(((2S,3R,4S)-3,4-dihydroxy-1-(2-(2-methoxyethoxy)ethyl)pyrrolidin-2-yl)methyl)biphenyl-4-carboxamide], the Ave % inhibition entry is given as “+++ (+++: 40-59%)”. On to `CCCCN1C[C@H](O)[C@H](O)[C@H]1CNC(=O)CCC` [Compound 689, N-(((2R,3R,4S)-1-butyl-3,4-dihydroxypyrrolidin-2-yl)methyl)butyramide], for which the Ave % inhibition entry is recorded as “+ (+: ≦19%)”. For `O[C@H]([C@H]1[C@@H](O)[C@H](O)CN1Cc1ccccc1)[C@H](O)CNCc1ccccc1` [Compound 698, (2S,3R,4R)-1-benzyl-2-((1R,2R)-3-(benzylamino)-1,2-dihydroxypropyl)pyrrolidine-3,4-diol], the Ave % inhibition result was “++ (++: 20-39%)”.

On to `O[C@@H]1[C@H]([C@@H](O)CNCc2ccccc2)N(Cc2ccccc2)C[C@@H]1O` [Compound 700, (2S,3R,4S)-1-benzyl-2-((S)-2-(benzylamino)-1-hydroxyethyl)pyrrolidine-3,4-diol], for which the Ave % inhibition result is reported as “++ (++: 20-39%)”. Turning to `O=C(NC[C@H]1[C@@H](O)[C@@H](O)CN1CCN1CCOCC1)c1ccc(-c2ccccc2)cc1` [Compound 702, N-(((2S,3R,4S)-3,4-dihydroxy-1-(2-morpholinoethyl)pyrrolidin-2-yl)methyl)biphenyl-4-carboxamide], the Ave % inhibition entry is listed as “++++ (++++: 60-79%)”. Turning to `OC[C@@H](O)[C@H](O)[C@H]1[C@@H](O)[C@H](O)CN1Cc1ccccc1` [Compound 703, (1R,2R)-1-((2R,3R,4R)-1-benzyl-3,4-dihydroxypyrrolidin-2-yl)propane-1,2,3-triol], the Ave % inhibition result is on record as “++ (++: 20-39%)”. `CC1(C)O[C@H]([C@H]2[C@@H](O)[C@H](O)CN2Cc2ccccc2)[C@@H](CNCc2ccccc2)O1` [Compound 704, (2R,3R,4R)-1-benzyl-2-((4R,5R)-5-((benzylamino)methyl)-2,2-dimethyl-1,3-dioxolan-4-yl)pyrrolidine-3,4-diol]: the Ave % inhibition entry is listed as “++++ (++++: 60-79%)”. `COC(=O)[C@H]1C[C@H](O)CN1C(=O)OC(C)(C)C` [Compound 713, (2R,4S)-1-tert-butyl 2-methyl 4-hydroxypyrrolidine-1,2-dicarboxylate]: the Ave % inhibition result is “++ (++: 20-39%)”. For `[N-]=[N+]=N[C@@H]1C[C@H](CO)N(CCCO)C1` [Compound 717, ′3-((2R,4R)-4-azido-2-(hydroxymethyl)pyrrolidin-1-yl)propan-1-ol], the Ave % inhibition result is given as “+++++ (+++++: ≧80%)”. Still for that read-out and setting: for `[N-]=[N+]=N[C@@H]1CN(CCO)[C@H](CO)[C@H]1O` [Compound 721, (2R,3R,4R)-4-azido-1-(2-hydroxyethyl)-2-(hydroxymethyl)pyrrolidin-3-ol] the value was “++ (++: 20-39%)”; for `CCCCCCCCCN1C[C@@H](O)[C@@H](O)[C@H](NC(C)=O)C1` [Compound 731, N-((3R,4S,5R)-4,5-dihydroxy-1-nonylpiperidin-3-yl)acetamide], “++ (++: 20-39%)”. Regarding `CCCCCCCCCN1C[C@@H](O)[C@H](O)[C@H](O)[C@@H](O)C1` [Compound 736, (3R,4S,5R,6S)-1-nonylazepane-3,4,5,6-tetraol], the Ave % inhibition entry is “+++ (+++: 40-59%)”. As for `OC1CN(Cc2ccc(-c3ccccc3)cc2)C1` [Compound 748, 1-(biphenyl-4-ylmethyl)azetidin-3-ol], the Ave % inhibition entry was “++++ (++++: 60-79%)”. On the same count and under the same terms, the value for `O[C@H]1[C@H](O)[C@H](O)CN(Cc2ccc(-c3ccccc3)cc2)C[C@H]1O` [Compound 762, (3R,4R,5R,6R)-1-(biphenyl-4-ylmethyl)azepane-3,4,5,6-tetraol] was “+++ (+++: 40-59%)”. `[N-]=[N+]=N[C@@H]1CN[C@@H](CO)C1` [Compound 767, ((2R,4S)-4-azidopyrrolidin-2-yl)methanol]: the Ave % inhibition result is recorded as “++++ (++++: 60-79%)”. Consider `CCCCCCCCCN1C[C@H](O)[C@@H](O)[C@H](NC(C)=O)C1` [Compound 774, N-((3R,4S,5S)-4,5-dihydroxy-1-nonylpiperidin-3-yl)acetamide], for which the Ave % inhibition entry is on record as “+ (+: ≦19%)”.
